In assay [1] the target is T1, GST-TIE2 (intracellular domains of human TIE2) (Homo sapiens, UniProt Q02763).
T1 construct: made in house
Kind of assay: TIE-2 Enzyme assay (TIE2-E), LANCE method. It is filed as biochemical. The note with it: GST-TIE2, 80 uM ATP, D1–15 peptide; for IC50: read-out: TIE2-E pIC50 (converted). On the procedure: TIE-2 Enzyme assay (TIE2-E)
Preactivated GST-TIE2 was incubated for 30 mins at room temperature in 96 well plates with 1 uM D1–15 peptide, 80 uM ATP, 10 mM MgCl2, 0.1 mg/ml BSA and the test compound (diluted from a 10 mM stock in DMSO, final DMSO concentration was 2.4%) in 1 mM HEPES (pH 7.4). The reaction was stopped by the addition of EDTA (final concentration 45 mM). Streptavidin linked-APC (allophycocyanin, Molecular Probe) and Europium-labeled anti-phosphorylated tyrosine antibody (Wallac) were then added at the final concentration of 17 ug/well and 2.1 ug/well, respectively. The APC signal was measured using an ARVO multilabel counter. (Wallac Berthold Japan). The percent inhibition of activity was calculated relative to blank control wells. […] The IC50 values were converted to pIC50 values, i.e., −log IC50 in Molar concentration.
A general note: In TR-FRET formats the signal depends on donor and acceptor labels being close together.

Assay [2] concerns Human umbilical cord endothelial cells (HUVEC). The assay can be described thus: VEGF-Driven Cellular Proliferation Assay, BrdU Incorporation Assay (VEGF-C). It is filed as cell-based. The following applies: for IC50: Homo sapiens, read-out: VEGF-C pIC50 (converted). On the procedure:
VEGF-Driven Cellular Proliferation Assay. BrdU Incorporation Assay (VEGF-C)
Human umbilical cord endothelial cells (HUVEC, Clonetics, CC2519) were passaged in Type I collagen-coated 100-mm petridishes in EGM-MV medium (Clonetics, CC3125) at 37 C in a humidified 5% CO2, 95% air incubator. […] After incubation overnight at 37° C., the media were replaced with 100 ul of M199 serum-free medium containing compounds at various concentrations with 0.6% DMSO and gentamicin. The compounds were diluted in serum-free M199 medium from 10 mM stock solutions prepared in 100% DMS0. […] The cells were pulsed with bromodeoxyuridine (BrdU at 10 uM in serum-free M199) at 37° C. for an additional 24 h. […] The optical density at 450 nm was measured with a multilabel counter (ARVO SX, Wallac). The percent inhibition of cell growth was calculated relative to blank control wells. […] The IC50 values were converted to pIC50 values, i.e., −log IC50 in Molar concentration.

The target in assay [3] is T2, TIE2 intracellular domain/c-fms extracellular domain (TIE2/c-fms) chimeric protein (Homo sapiens, UniProt Q02763).
T2 construct: TIE2 intracellular domain/c-fms extracellular domain (TIE2/c-fms) chimeric protein; expressed in transfected cells; host or cells: mouse 3T3 cells
T2 sequence (Q02763 770-1124 limits assumed, change not shown): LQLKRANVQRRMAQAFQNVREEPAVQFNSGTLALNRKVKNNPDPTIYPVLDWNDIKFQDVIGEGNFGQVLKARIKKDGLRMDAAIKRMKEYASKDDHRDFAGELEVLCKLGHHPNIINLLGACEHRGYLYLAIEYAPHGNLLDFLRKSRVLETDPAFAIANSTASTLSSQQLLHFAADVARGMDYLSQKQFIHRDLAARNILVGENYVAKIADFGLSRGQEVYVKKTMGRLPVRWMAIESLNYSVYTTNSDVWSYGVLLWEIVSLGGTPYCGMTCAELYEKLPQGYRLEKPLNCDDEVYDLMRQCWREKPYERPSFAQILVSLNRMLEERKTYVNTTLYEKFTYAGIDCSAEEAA
T2 sequence (P07333 20-517 partner limits assumed): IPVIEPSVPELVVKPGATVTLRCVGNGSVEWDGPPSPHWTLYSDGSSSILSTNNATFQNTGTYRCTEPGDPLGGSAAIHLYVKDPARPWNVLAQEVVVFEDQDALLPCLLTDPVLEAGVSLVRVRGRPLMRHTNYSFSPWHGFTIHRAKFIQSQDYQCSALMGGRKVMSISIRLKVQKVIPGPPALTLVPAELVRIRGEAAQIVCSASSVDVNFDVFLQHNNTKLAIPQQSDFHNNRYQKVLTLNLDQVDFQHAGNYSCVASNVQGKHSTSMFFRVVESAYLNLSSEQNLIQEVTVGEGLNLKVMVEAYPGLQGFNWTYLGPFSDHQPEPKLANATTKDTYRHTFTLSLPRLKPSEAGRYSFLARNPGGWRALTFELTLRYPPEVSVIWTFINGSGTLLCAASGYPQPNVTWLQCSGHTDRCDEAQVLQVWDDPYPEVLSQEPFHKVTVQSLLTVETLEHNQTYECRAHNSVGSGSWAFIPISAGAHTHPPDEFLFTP
T2 sequence (P09603 33-190 partner limits assumed): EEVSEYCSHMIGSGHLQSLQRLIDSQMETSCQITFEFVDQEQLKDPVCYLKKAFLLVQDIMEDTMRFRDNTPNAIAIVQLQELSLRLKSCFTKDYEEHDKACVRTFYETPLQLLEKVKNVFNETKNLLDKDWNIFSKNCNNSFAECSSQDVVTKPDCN
Kind of assay: TIE-2 Autophosphorylation Assay (TIE2-C), ELISA. The assay is classed as cell-based. The note with it: TIE2/c-fms expressing mouse 3T3 cells, MCSF activation; for IC50: read-out: TIE2-C pIC50 (converted). On the procedure: TIE-2 Autophosphorylation Assay (TIE2-C)
The TIE-2 autophosphorylation assay used an ELISA method and a TIE2 intracellular domain/c-fms extracellular domain (TIE2/c-fms) chimeric protein expressing mouse 3T3 cells. This assay measured the autophosphorylation level of TIE2 protein expressed in cells. The cells were cultured in high glucose DMEM (Sigma) containing 10% serum at 37° C. in a humidified 10% CO2, 90% air incubator. The test compound (diluted from a 10 mM stock in DMSO, final DMSO concentration was 0.1%) was incubated with TIE2/c-fms expressing cells for 1 hr in serum free DMEM in 96 well plates followed by the activation of TIE2/c-fms receptor using c-fms ligand, MCSF (macrophage colony stimulating factor). […] The cell extracts were transferred into Rat anti-c-fms antibody coated 96 well plates and incubated for 12 hrs at 4 degrees. The extracts were removed by aspiration and the plate was incubated with biotinylated anti-phosphotyrosine antibody, PT66 (Sigma) and then with HRP (Horseradish Peroxidase)-labeled streptavidin (PIERCE). The optical density at 450 nm derived from HRP catalyzed TMB was measured with an ARVO multilabel counter. (Wallac Berthold Japan). The percent inhibition of activity was calculated relative to blank control wells. […] The IC50 values were converted to pIC50 values, i.e., −log IC50 in Molar concentration.
For orientation: ELISA stands for enzyme-linked immunosorbent assay.

A further assay concerns the target T3, GST-VEGFR2 (Homo sapiens, UniProt P35968).
T3 construct: GST-VEGFR2, baculovirus expressed recombinant constructs of the intracellular domains of human TIE2 tagged by GST; made in house
The assay can be described thus: VEGF-R2 Enzyme Assay (VEGF-E), LANCE method. The assay is classed as biochemical. The following applies: GST-VEGFR2, 75 uM ATP; for IC50: read-out: VEGF-E pIC50 (converted). On the procedure: VEGF-R2 Enzyme Assay (VEGF-E)
The VEGF enzyme assay used the LANCE method (Wallac) and GST-VEGFR2, baculovirus expressed recombinant constructs of the intracellular domains of human […] tagged by GST. […] The reaction was stopped by the addition of EDTA (final concentration 50 mM). […] The APC signal was measured using an ARVO multilabel counter (Wallac Berthold, Japan). The percent inhibition of activity was calculated relative to blank control wells. […] The IC50 values were converted to pIC50 values, i.e., −log IC50 in Molar concentration.

T3 sequence (P35968 786-1356 limits assumed): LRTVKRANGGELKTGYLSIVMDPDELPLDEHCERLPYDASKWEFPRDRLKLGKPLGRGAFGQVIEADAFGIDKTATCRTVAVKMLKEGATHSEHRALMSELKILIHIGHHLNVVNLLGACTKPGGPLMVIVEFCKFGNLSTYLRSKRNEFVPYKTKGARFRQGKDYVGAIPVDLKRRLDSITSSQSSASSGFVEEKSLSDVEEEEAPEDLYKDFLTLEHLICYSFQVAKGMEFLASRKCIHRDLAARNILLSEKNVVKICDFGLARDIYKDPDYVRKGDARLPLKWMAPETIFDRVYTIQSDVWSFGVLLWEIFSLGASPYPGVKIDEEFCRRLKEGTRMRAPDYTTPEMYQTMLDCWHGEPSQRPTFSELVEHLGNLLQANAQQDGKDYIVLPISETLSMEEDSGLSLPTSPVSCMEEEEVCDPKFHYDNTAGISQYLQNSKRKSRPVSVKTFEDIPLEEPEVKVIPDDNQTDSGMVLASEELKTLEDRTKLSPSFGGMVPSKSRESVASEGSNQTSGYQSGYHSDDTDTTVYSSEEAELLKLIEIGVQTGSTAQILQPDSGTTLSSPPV
T1 sequence (Q02763 762-1104): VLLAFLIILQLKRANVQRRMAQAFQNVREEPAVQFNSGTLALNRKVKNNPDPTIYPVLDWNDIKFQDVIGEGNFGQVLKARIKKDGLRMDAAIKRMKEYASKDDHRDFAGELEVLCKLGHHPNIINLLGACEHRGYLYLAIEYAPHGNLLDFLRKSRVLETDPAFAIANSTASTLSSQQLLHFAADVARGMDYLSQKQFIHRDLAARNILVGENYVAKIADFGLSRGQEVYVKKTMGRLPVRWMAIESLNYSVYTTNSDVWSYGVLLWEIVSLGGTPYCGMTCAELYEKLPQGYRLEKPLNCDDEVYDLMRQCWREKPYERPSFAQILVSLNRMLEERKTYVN

On to “4-Amino-2-(4-amino-3-(N-methylcarbamoyl)phenyl)-3-(4-methoxyphenyl)furo[2,3-d]pyrimidine [Example 147]”, for which, in assay [1], the “TIE2-E pIC50” value is on record as “+ (+ = pIC50 of 5.0–6.0)”. Also, the “VEGF-C pIC50” value in assay [2] is “+ (+ = pIC50 of 5.0–6.0)”. The “TIE2-C pIC50” value in assay [3] is given as “++ (++ = pIC50 of 6.0–7.0)”. At GST-VEGFR2, the “VEGF-E pIC50” value was “++ (++ = pIC50 of 6.0–7.0)”.
As to “4-Amino-2-(4-fluoro-3-(methylsulfonylamino)phenyl)-3-(4-methoxyphenyl)furo[2,3-d]pyrimidine [Example 178]”, the “TIE2-E pIC50” value in assay [1] is recorded as “+ (+ = pIC50 of 5.0–6.0)”. The “VEGF-C pIC50” value in assay [2] is recorded as “+ (+ = pIC50 of 5.0–6.0)”. Also, in assay [3], the “TIE2-C pIC50” value is given as “++ (++ = pIC50 of 6.0–7.0)”. For the same compound, the “VEGF-E pIC50” value at GST-VEGFR2 is “++ (++ = pIC50 of 6.0–7.0)”.
Take “4-Amino-2-(5-indolyl)-3-(4-(3-pyridyl)phenyl)furo[2,3-d]pyrimidine [Example 153]”: the “TIE2-E pIC50” value in assay [1] is “++ (++ = pIC50 of 6.0–7.0)”. Moreover, in assay [2], the “VEGF-C pIC50” value is reported as “+ (+ = pIC50 of 5.0–6.0)”. Moreover, in assay [3], the “TIE2-C pIC50” value is recorded as “++ (++ = pIC50 of 6.0–7.0)”.
In the case of “4-Amino-3-(4-(2-pyridyl)phenyl)-2-(3-sulfamoylphenyl)furo[2,3-d]pyrimidine [Example 206]”, the “TIE2-E pIC50” value in assay [1] is “++ (++ = pIC50 of 6.0–7.0)”. The “VEGF-C pIC50” value in assay [2] was “+ (+ = pIC50 of 5.0–6.0)”. The “TIE2-C pIC50” value in assay [3] was “++ (++ = pIC50 of 6.0–7.0)”. Moreover, on GST-VEGFR2, the “VEGF-E pIC50” value is recorded as “+++ (+++ = pIC50 of >7.0)”.
For “4-Amino-3-(4-(4-tert-butylphenyl)phenyl)-2-(3-sulfamoylphenyl)-furo[2,3-d]pyrimidine [Example 204]”, in assay [1], the “TIE2-E pIC50” value is reported as “++ (++ = pIC50 of 6.0–7.0)”. For the same compound, the “VEGF-C pIC50” value in assay [2] is reported as “+ (+ = pIC50 of 5.0–6.0)”. The “TIE2-C pIC50” value in assay [3] is reported as “++ (++ = pIC50 of 6.0–7.0)”.
As for “4-Amino-3-(4-methoxyphenyl)-2-(3-(N-(4-pyridyl)carbamoyl)-phenyl)furo[2,3-d]pyrimidine [Example 108]”, the “TIE2-E pIC50” value in assay [1] is “++ (++ = pIC50 of 6.0–7.0)”. The “VEGF-C pIC50” value in assay [2] is on record as “+ (+ = pIC50 of 5.0–6.0)”. In assay [3], the “TIE2-C pIC50” value is given as “++ (++ = pIC50 of 6.0–7.0)”.
As to “4-Amino-3-(4-methoxyphenyl)-2-(3-sulfamoylphenyl)furo[2,3-d]pyrimidine [Example 165]”, the “TIE2-E pIC50” value in assay [1] was “++ (++ = pIC50 of 6.0–7.0)”. For the same compound, the “VEGF-C pIC50” value in assay [2] was “+ (+ = pIC50 of 5.0–6.0)”. Besides, the “TIE2-C pIC50” value in assay [3] is recorded as “++ (++ = pIC50 of 6.0–7.0)”. At GST-VEGFR2, the “VEGF-E pIC50” value is given as “+++ (+++ = pIC50 of >7.0)”.
Consider `Nc1ncnc2occ(-c3ccc(NC(=O)Nc4cc(C(F)(F)F)ccc4F)cc3)c12` [232 (8C), 4-Amino-3-(4-((2-fluoro-5-(trifluoromethyl)phenyl)-aminocarbonylamino)phenyl)furo[2,3-d]pyrimidine], for which the IC50 (in assay [1]; in assay [2]; in assay [3]; on GST-VEGFR2) was less than 0.1 µM each time.
For the compound `COc1ccc(-c2oc3ncnc(N)c3c2-c2ccc(NC(=O)Nc3cc(C(F)(F)F)ccc3F)cc2)cc1` [Example 4], the IC50 (in assay [1]; in assay [2]; in assay [3]; at GST-VEGFR2) was less than 0.1 µM each time.
As to `Nc1ncnc2oc(-c3cccc(S(N)(=O)=O)c3)c(-c3ccc(-c4cccc(F)c4F)cc3)c12` [Example 5], the IC50 in assay [1] is 0.1 to 1 µM; in assay [2], 1 to 10 µM; in assay [3], 0.1 to 1 µM; at GST-VEGFR2, less than 0.1 µM.
On to `N#Cc1cccc(-c2oc3ncnc(N)c3c2-c2ccc(NC(=O)Nc3cc(C(F)(F)F)ccc3F)cc2)c1` [Example 8], for which the IC50 (in assay [1]; in assay [2]; in assay [3]; at GST-VEGFR2) was less than 0.1 µM in each case.
On to `Nc1ncnc2oc(-c3ccoc3)c(-c3ccco3)c12` [Example 15], for which the “TIE2-E pIC50” value in assay [1] is recorded as “+ (+ = pIC50 of 5.0–6.0)”. Besides, in assay [2], the “VEGF-C pIC50” value is reported as “+ (+ = pIC50 of 5.0–6.0)”. Besides, in assay [3], the “TIE2-C pIC50” value is recorded as “+ (+ = pIC50 of 5.0–6.0)”. For the same compound, the “VEGF-E pIC50” value at GST-VEGFR2 is “++ (++ = pIC50 of 6.0–7.0)”.
For `Cc1ccc(-c2oc3ncnc(N)c3c2-c2ccc(C)cc2)cc1` [Example 16], the “TIE2-E pIC50” value in assay [1] is “+ (+ = pIC50 of 5.0–6.0)”. In addition, the “VEGF-C pIC50” value in assay [2] is recorded as “+ (+ = pIC50 of 5.0–6.0)”. For the same compound, the “TIE2-C pIC50” value in assay [3] is reported as “+ (+ = pIC50 of 5.0–6.0)”. Further, on GST-VEGFR2, the “VEGF-E pIC50” value was “++ (++ = pIC50 of 6.0–7.0)”.
Consider `NC(=O)c1cccc(-c2oc3ncnc(N)c3c2-c2ccc(-c3ccccc3)cc2)c1` [Example 131, 4-Amino-3-(4-biphenyl)-2-(3-carbamoylphenyl)furo[2,3-d]pyrimidine], for which the IC50 in assay [1] is 0.1 to 1 µM; in assay [2] it was 1 to 10 µM; in assay [3], 0.1 to 1 µM; on GST-VEGFR2, 0.1 to 1 µM.
On to `CC(=O)Nc1cccc(-c2oc3ncnc(N)c3c2-c2ccc(-c3ccccc3)cc2)c1` [Example 132, 2-(3-Acetamidophenyl)-4-amino-3-(4-biphenyl)furo[2,3-d]pyrimidine], for which the IC50 in assay [1] is 1 to 10 µM; in assay [2], 1 to 10 µM; in assay [3], 0.1 to 1 µM; at GST-VEGFR2, 0.1 to 1 µM.
Take `NC(=O)c1cc(-c2oc3ncnc(N)c3c2-c2ccc(-c3ccccc3)cc2)ccc1F` [Example 145, 4-Amino-3-(4-biphenyl)-2-(3-carbamoyl-4-fluorophenyl)furo[2,3-d]pyrimidine]: the IC50 is 0.1 to 1 µM in assay [1], 0.1 to 1 µM in assay [3] and less than 0.1 µM at GST-VEGFR2.
Consider `CS(=O)(=O)Nc1ccc(-c2oc3ncnc(N)c3c2-c2ccc(-c3ccccc3)cc2)cc1` [Example 191, 4-Amino-3-(4-biphenyl)-2-(4-(methylsulfonylamino)phenyl)furo[2,3-d]pyrimidine], for which the IC50 (in assay [1]; in assay [3]; on GST-VEGFR2) was 0.1 to 1 µM each time.
For `Nc1ncnc2oc(-c3ccc4[nH]nnc4c3)c(-c3ccc(-c4ccccc4)cc3)c12` [Example 196, 4-Amino-2-(5-benzotriazolyl)-3-(4-biphenyl)furo[2,3-d]pyrimidine], the IC50 is 0.1 to 1 µM in assay [1], 1 to 10 µM in assay [2] and 0.1 to 1 µM in assay [3].
As to `Nc1ncnc2oc(-c3ccc4[nH]cnc4c3)c(-c3ccc(-c4ccccc4)cc3)c12` [Example 198, 4-Amino-2-(5-benzimidazolyl)-3-(4-biphenyl)furo[2,3-d]pyrimidine], the IC50 is 0.1 to 1 µM in assay [1], 1 to 10 µM in assay [2] and 0.1 to 1 µM in assay [3].

The values above are taken from patent US7427623B2, “4-Amino-2,3-disubstituted thieno[2,3-d]pyrimidines and pharmacetical compositions thereof” (SmithKline Beecham Corporation, priority 2001, dated 2008).
